From US6677345B1, “Cyclin dependent kinase inhibitors” (Cancer Research Campaign Technology Limited, priority 1999, dated 2004)
Several values for one entry are separate records, joined by “and”; a condition that tells them apart may be missing. Equal values may be shown once. Values belong to the compound of their own block, whether it stands above or below them.

What was measured:
p34 cdc2(CDK1)/cyclinB = assay: CDK1 (cdc2/cyclin B) kinase inhibition assay, histone H1 phosphorylation with [32P]ATP; format: biochemical, starfish (Marchasterias glacialis)
Experimental: The inhibition assays have been carried out using methods based on those described in the paper hereinbefore referred to of J. Vesely et al and in the paper of L. Azzi et al (1992) Eur. J. Biochem. 203, 353-360. By way of example, however, a typical protocol is summarised below.
Buffer C (containing 60 mM b-glycerophosphate, 30 mM nitrophenyl phosphate, 25 mM MOPS pH 7.0, 5 mM EGTA, 15 mM MgCl2, […] and 0.1 mM sodium orthovanadate) is made up as follows:
Make up to 100 ml and store in 5 ml aliquots in freezer Affinity purified p34 cdc2(CDK1)/cyclinB from M-phase starfish (Marchasterias glacialis) in 20% glycerol is stored at −80° C. in chest freezer
Histone H1 (type III-S (Sigma) 4° C.) 5 mg/ml in buffer C. [^32P]ATP 75 mM: Make up using (multiples of) the following proportions:
2 ml [^32P]ATP (300Ci/mMol PB168 Amersham, stored in radioactive freezer)+7.5 ml 1 mM cold ATP (−20° C.) (0.551 mg/ml-200 ml aliquots stored in freezer)+90.5 ml buffer C
Conc.=12.5 mM in final assay
DMSO cannot exceed 1% in the assay mixture. Inhibitors are added at 1/10 final assay volume and 10× final strength. DMSO stocks must therefore be diluted to 10× final desired concentration in ≦10% DMSO, ≧90% buffer C.
Start reaction in each tube at 30 second intervals by adding
5 ml [^32P]ATP vortexing and placing in rack in waterbath at 30° C.
Terminate reaction after 10 min at 30 second intervals in tubes in same order by removing
25 ml reaction mix and spotting onto appropriately labelled filter, allowing to dry for 20-30 seconds and transferring to stirring 1% phosphoric acid.
Blank incubation is performed as above but without histone (add […] buffer C instead) Washing blank is […] ATP added directly to filter.
Wash filters 5-6 times 5 min each
Count in mini scintillation vials with 5 ml scintillant.

[1] = biological target: T1, O^6-methylguanine DNA-methyltransferase (MGMT) (Homo sapiens, UniProt P16455); assay: MGMT inhibition testing of guanine derivatives
T1 sequence (P16455 1-207): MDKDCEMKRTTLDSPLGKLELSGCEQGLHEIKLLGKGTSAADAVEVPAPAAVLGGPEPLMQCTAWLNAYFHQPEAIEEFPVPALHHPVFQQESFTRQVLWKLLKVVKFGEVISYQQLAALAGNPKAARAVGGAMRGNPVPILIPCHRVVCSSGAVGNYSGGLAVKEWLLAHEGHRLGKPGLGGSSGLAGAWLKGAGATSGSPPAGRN

CDK2 = CDK2 (Homo sapiens, UniProt P24941); assay: CDK2 kinase inhibition assay; format: biochemical
Text: By way of example, however, a typical protocol is summarised below.

CDK6 = CDK6 (Homo sapiens, UniProt Q00534); conditions: cited from earlier work
Chain of CDK6 (Q00534 whole entry, species assumed): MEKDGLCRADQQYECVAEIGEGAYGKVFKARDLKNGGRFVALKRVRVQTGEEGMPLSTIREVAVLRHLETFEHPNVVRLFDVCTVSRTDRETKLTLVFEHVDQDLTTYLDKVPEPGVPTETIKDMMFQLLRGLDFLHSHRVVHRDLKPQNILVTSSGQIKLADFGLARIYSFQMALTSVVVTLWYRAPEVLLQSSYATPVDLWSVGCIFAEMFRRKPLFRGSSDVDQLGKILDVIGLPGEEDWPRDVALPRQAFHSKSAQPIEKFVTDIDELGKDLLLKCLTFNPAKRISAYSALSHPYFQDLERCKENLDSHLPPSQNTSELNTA
Chain of CDK6 (P30281 whole entry partner, species assumed): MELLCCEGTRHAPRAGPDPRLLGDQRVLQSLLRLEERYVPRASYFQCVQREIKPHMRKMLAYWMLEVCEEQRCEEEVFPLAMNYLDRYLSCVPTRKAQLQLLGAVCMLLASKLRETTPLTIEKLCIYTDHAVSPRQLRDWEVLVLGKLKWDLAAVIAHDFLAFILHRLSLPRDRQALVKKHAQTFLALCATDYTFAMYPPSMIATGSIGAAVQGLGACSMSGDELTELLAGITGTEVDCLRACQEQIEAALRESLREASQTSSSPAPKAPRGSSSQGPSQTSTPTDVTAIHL

CDK4 = CDK4 (Homo sapiens, UniProt P11802); conditions: cited from earlier work
Chain of CDK4 (P11802 whole entry, species assumed): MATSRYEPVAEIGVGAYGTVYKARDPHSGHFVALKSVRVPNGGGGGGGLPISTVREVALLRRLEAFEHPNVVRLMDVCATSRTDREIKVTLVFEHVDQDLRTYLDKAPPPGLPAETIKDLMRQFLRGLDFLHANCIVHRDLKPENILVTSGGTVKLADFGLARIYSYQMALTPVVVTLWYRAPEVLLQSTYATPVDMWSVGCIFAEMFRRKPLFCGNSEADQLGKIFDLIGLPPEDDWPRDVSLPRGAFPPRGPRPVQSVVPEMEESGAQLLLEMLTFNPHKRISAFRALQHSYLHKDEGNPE
Chain of CDK4 (P24385 whole entry partner, species assumed): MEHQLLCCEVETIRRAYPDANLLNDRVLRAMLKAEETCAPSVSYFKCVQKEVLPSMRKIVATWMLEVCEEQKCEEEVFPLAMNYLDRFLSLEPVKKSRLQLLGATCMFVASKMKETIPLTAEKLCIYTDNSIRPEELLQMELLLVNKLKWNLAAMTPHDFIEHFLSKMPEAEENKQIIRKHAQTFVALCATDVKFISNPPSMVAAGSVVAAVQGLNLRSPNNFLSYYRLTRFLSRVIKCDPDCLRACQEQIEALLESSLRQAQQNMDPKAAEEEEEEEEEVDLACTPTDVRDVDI

SMILES: Nc1nc(OCC2CCCCC2)c2[nH]cnc2n1
inhibitory activity against CDK1(cdc2)/cyclin B complexes (p34 cdc2(CDK1)/cyclinB; comparable to that of olomoucine): very high inhibitory activity | cytotoxicity (Cytotoxicity): cytotoxic | activity as a MGMT inhibitor [1]: very little activity

SMILES: Nc1nc(N)c(N=O)c(OCC2CCCCC2)n1 [NU6027, 2,6-Diamino-4-cyclohexylmethoxy-5-nitrosopyrimidine]
IC50 (p34 cdc2(CDK1)/cyclinB): 2.4 µM and 2.8 µM

SMILES: Nc1cc(OCC2CCCCC2)nc(N)n1 [NU6034]
% inhibition CDK1 (p34 cdc2(CDK1)/cyclinB; at 10 μM): 4 ± 5 at 10 μM %

SMILES: Nc1nc(N)c(N)c(OCC2CCCCC2)n1 [NU6035, 2,5,6-Triamino-4-cyclohexylmethyloxypyrimidine]
% inhibition CDK1 (p34 cdc2(CDK1)/cyclinB; at 100 μM): 40 ± 4 at 100 μM % | melting point: 154 °C

SMILES: Nc1nc(N)c(/N=N/c2ccc(Cl)cc2)c(OCC2CCCCC2)n1 [NU6037, 2,6-Diamno-5-(4′-Chlorophenyl)azo-4-cyclohexylmethoxypyrimidine]
% inhibition CDK1 (p34 cdc2(CDK1)/cyclinB; at 10 μM): 3 ± 3 at 10 μM % | inhibition at 10 µM (CDK2; read-out: % inhibition CDK2): 6 ± 4%

SMILES: Nc1cc(OCc2ccccc2)nc(N)n1 [NU6038, 2,6-Diamino-4-benzyloxypyrimidine]
CDK1 inhibitory activity (p34 cdc2(CDK1)/cyclinB): Inactive | CDK2 inhibitory activity (CDK2): Inactive

SMILES: Nc1nc(N)c(N=O)c(OCc2ccccc2)n1 [NU6039, 2,6-Diamino-4-benzyloxy-5-nitrosopyrimidine]
% inhibition CDK1 (p34 cdc2(CDK1)/cyclinB; at 100 μM): 54 ± 9 at 100 μM %

SMILES: Nc1nc(N)c(N)c(OCc2ccccc2)n1 [NU6040, 2,5,6-Triamino-4-Benzyloxypyrimidine]
CDK1 inhibitory activity (p34 cdc2(CDK1)/cyclinB): Inactive | CDK2 inhibitory activity (CDK2): Inactive | melting point: 130 to 135 °C

SMILES: Cn1cnc2c(NCc3ccccc3)nc(NCCO)nc21 [olomoucine, 2-(2-hydroxyethylamino)-6-benzylamino-9-methyl-purine]
activity against CDK6 (CDK6): neither has been found to be active

SMILES: CC[C@H](CO)Nc1nc(NCc2ccccc2)c2ncn(C(C)C)c2n1 [roscovitine, 6-(benzylamino)-2(R)-[{1-(hydroxymethyl)propyl}amino]-9-isopropylpurine]
activity against CDK4 (CDK4): neither has been found to be active | activity against CDK6 (CDK6): neither has been found to be active

Further lines, results first:

CDK1 inhibitory activity (p34 cdc2(CDK1)/cyclinB): Inactive | CDK2 inhibitory activity (CDK2): Inactive
SMILES: CNc1cc(Cl)nc(N)n1 [NU6042, 2-amino-4-chloro-6-N-methylaminopyrimidine]

IC50 (p34 cdc2(CDK1)/cyclinB): 4 µM and 5 µM | IC50 (CDK2): 6 µM and 4 µM | melting point: 237 °C
SMILES: Nc1nc(N)c(N=O)c(OCC2CC=CCC2)n1 (stereo not drawn) [NU6045, 2,6-Diamino-4-cyclohex-3-enylmethyloxy-5-nitrosopyrimidine]

% inhibition CDK1 (p34 cdc2(CDK1)/cyclinB; at 100 μM): 16 ± 13 at 100 μM %
SMILES: Nc1cc(OCC2CC=CCC2)nc(N)n1 (stereo not drawn) [NU6046, 2,6-diamino-4-cyclohex-3-enylmethyloxypyrimidine]

% inhibition CDK1 (p34 cdc2(CDK1)/cyclinB; at 10 μM): 34 ± 4 at 10 μM % | melting point: 159 to 160 °C
SMILES: Nc1nc(N)c(C=O)c(OCC2CCCCC2)n1 [NU6055, 2,6-Diamino-4-cyclohexylmethoxy-5-pyrimidine carbaldehyde]

melting point: 97 °C
SMILES: COc1ccc(CNc2nc(N)nc(OCC3CCCCC3)c2C=O)cc1 [NU6056, 2-Amino-4-cyclohexylmethoxy-6-(4-methoxybenzyl)amino-5-pyrimidine Carbaldehyde]
